One assay has as its system TNFα. As to the kind of experiment: IRAK4 Monocyte TNFα Cell Based Assay. Details: species or system human. The note with it: read-out: EC50 MONO TNF HTRF. In outline: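 Human monocytes (5,000/well) pretreated with compound 1 h at 37 °C (0.1% DMSO final), then stimulated with 50 pg/ml LPS for 4 h. Secreted TNFα measured by TR-FRET two-antibody detection after overnight incubation at room temperature; % control relative to unstimulated and LPS-stimulated wells.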

The next assay deals with IRAK4 enzyme (Homo sapiens (Human), UniProt Q9NWZ3). As to the kind of experiment: IRAK4 Biochemical Assay (TR-FRET, STK1 KinEASE). In outline:
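IRAK4 (0.75 nM) preincubated 15 min with compound and […] STK1 peptide, then started with 500 μM ATP in HEPES pH 7.0 buffer with MgCl2, DTT, BSA, NP-40; 120 min at room temperature.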
(In general: TR-FRET usually uses a lanthanide donor and a delayed reading to cut background.)

Setting [1] is: Homo sapiens, Monocyte, human monocytes, second part of Table 2, compounds 33-343, unit inferred.
[2] abbreviates: human monocytes, second part of Table 2, compounds 33-343, unit inferred.
[3] abbreviates: second part of Table 2, compounds 33-343, unit inferred, read-out: IC50 IRAK4-HTBS.

Molecules are shown by their SMILES. Read-outs that look alike come from different tables or passages of the source.

Consider 22 compounds from patent publication US11046686B2, “Thiadiazole IRAK4 compounds” (Gilead Sciences, Inc., priority 2018, dated 2021).

Chain of IRAK4 enzyme (Q9NWZ3 whole entry): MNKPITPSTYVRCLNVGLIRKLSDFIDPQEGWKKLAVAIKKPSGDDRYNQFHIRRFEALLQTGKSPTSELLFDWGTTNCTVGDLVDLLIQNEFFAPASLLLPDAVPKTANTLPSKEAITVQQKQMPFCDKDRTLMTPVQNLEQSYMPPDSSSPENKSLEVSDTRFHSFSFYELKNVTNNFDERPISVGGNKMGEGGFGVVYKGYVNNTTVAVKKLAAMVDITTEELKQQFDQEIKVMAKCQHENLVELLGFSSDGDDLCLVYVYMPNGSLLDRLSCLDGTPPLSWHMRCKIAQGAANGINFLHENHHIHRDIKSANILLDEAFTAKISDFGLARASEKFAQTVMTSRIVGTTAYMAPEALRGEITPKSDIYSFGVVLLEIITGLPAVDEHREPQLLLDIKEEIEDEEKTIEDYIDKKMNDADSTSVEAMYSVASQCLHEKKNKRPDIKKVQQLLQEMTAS

Turning to `CC(=O)N[C@H]1C[C@@H]2C[C@H]1CN2c1nnc(-c2cnc(-c3ccc4cc(C#N)cnn34)cc2NC(C)C)s1` [Example 74, N-((1S,4S,5S)-2-(5-(6-(3-cyanopyrrolo[1,2-b]pyridazin-7-yl)-4-(isopropylamino)pyridin-3-yl)-1,3,4-thiadiazol-2-yl)-2-azabicyclo[2.2.1]heptan-5-yl)acetamide], the EC50 (commonly the midpoint of the concentration-response curve) with TNFα (setting [1]) is 11 nM. Further, the 50% inhibitory concentration (IC50) (in general, the midpoint of a concentration-inhibition curve) against IRAK4 enzyme turned out to be 0.54 nM.

For the compound `CC(=O)NC1CCC2(CC1)CN(c1nnc(-c3cnc(-c4ccc5cc(C#N)cnn45)cc3NC3CCOCC3)s1)C2` [Example 79, N-(2-(5-(6-(3-cyanopyrrolo[1,2-b]pyridazin-7-yl)-4-((tetrahydro-2H-pyran-4-yl)amino)pyridin-3-yl)-1,3,4-thiadiazol-2-yl)-2-azaspiro[3.5]nonan-7-yl)acetamide], in the assay with TNFα (setting [1]), the 50% effective concentration (EC50) is 2.6 nM. On IRAK4 enzyme, inhibition was half-maximal at 0.48 nM (IC50).

Turning to `CC(=O)N[C@@H]1CC[C@@H](c2nnc(-c3cnc(-c4ccc5cc(C#N)cnn45)cc3NC(C)C)s2)OC1` [Example 81, N-((3R,6S)-6-(5-(6-(3-cyanopyrrolo[1,2-b]pyridazin-7-yl)-4-(isopropylamino)pyridin-3-yl)-1,3,4-thiadiazol-2-yl)tetrahydro-2H-pyran-3-yl)acetamide], the EC50 in the assay with TNFα (setting [1]) amounted to 21.4 nM. For the same compound, the IC50 on IRAK4 enzyme was found to be 0.66 nM.

In the case of `CC(=O)NC12CCC(c3nnc(-c4cnc(-c5ccc6cc(C#N)cnn56)cc4NC(C)C)s3)(CC1)OC2` [Example 83, N-(1-(5-(6-(3-cyanopyrrolo[1,2-b]pyridazin-7-yl)-4-(isopropylamino)pyridin-3-yl)-1,3,4-thiadiazol-2-yl)-2-oxabicyclo[2.2.2]octan-4-yl)acetamide], in the assay on TNFα (setting [1]), the concentration for a half-maximal effect (EC50) was 52.5 nM. It took 1.37 nM to reach half-maximal inhibition on IRAK4 enzyme (IC50).

As to `CC(C)Nc1cc(-c2ccc3cc(C#N)cnn23)ncc1-c1nnc(C23CCC(O)(CC2)CC3)s1` [Example 89, 7-(5-(5-(4-hydroxybicyclo[2.2.2]octan-1-yl)-1,3,4-thiadiazol-2-yl)-4-(isopropylamino)pyridin-2-yl)pyrrolo[1,2-b]pyridazine-3-carbonitrile], the EC50 in the assay with TNFα (setting [1]) amounted to 11.3 nM. In addition, at IRAK4 enzyme, the IC50 came to 1.01 nM.

Turning to `CC(C)Nc1cc(-c2ccc3cc(C#N)cnn23)ncc1-c1nnc(N2C[C@H]3CC[C@@H](C2)[C@@H]3NC(=O)[C@H](C)O)s1` [Example 91, (S)-N-((1R,5S,8s)-3-(5-(6-(3-cyanopyrrolo[1,2-b]pyridazin-7-yl)-4-(isopropylamino)pyridin-3-yl)-1,3,4-thiadiazol-2-yl)-3-azabicyclo[3.2.1]octan-8-yl)-2-hydroxypropanamide], in the assay with TNFα (setting [2]), the EC50 was determined as 3.9 nM. For the same compound, on IRAK4 enzyme (setting [3]), the IC50 stood at 0.93 nM.

On to `CC(C)Nc1cc(-c2ccc3cc(C#N)cnn23)ncc1-c1nnc(N2C[C@H]3CC[C@@H](C2)[C@@H]3NC(=O)C2CN(C)C2)s1` [Example 102, N-((1R,5S,8s)-3-(5-(6-(3-cyanopyrrolo[1,2-b]pyridazin-7-yl)-4-(isopropylamino)pyridin-3-yl)-1,3,4-thiadiazol-2-yl)-3-azabicyclo[3.2.1]octan-8-yl)-1-methylazetidine-3-carboxamide], for which, in the assay with TNFα (setting [2]), the half-maximal effective concentration (EC50) came to 31.4 nM. Further, the IC50 at IRAK4 enzyme (setting [3]) was found to be 1.22 nM.

Take `CC(=O)N[C@H]1CC[C@@H](c2nnc(-c3cnc(-c4ccc5cc(C#N)cnn45)cc3NC(C)C)s2)CC1` [Example 127, N-((1s,4s)-4-(5-(6-(3-cyanopyrrolo[1,2-b]pyridazin-7-yl)-4-(isopropylamino)pyridin-3-yl)-1,3,4-thiadiazol-2-yl)cyclohexyl)acetamide]: the 50% effective concentration (EC50) with TNFα (setting [2]) turned out to be 9.9 nM. The half-maximal inhibitory concentration (IC50) on IRAK4 enzyme (setting [3]) came to 0.64 nM.

`CC(=O)N1CCC(c2nnc(-c3cnc(-c4ccc5cc(C#N)cnn45)cc3NC(C)C)s2)CC1` [Example 128, 7-(5-(5-(1-acetylpiperidin-4-yl)-1,3,4-thiadiazol-2-yl)-4-(isopropylamino)pyridin-2-yl)pyrrolo[1,2-b]pyridazine-3-carbonitrile]: in the assay with TNFα (setting [1]), the EC50 was 18.8 nM. Moreover, half-maximal inhibition on IRAK4 enzyme (IC50) was put at 0.59 nM.

With `CC(C)Nc1cc(-c2ccc3cc(C#N)cnn23)ncc1-c1nnc(N2CCNCC2)s1` [Example 130, 7-(4-(isopropylamino)-5-(5-(piperazin-1-yl)-1,3,4-thiadiazol-2-yl)pyridin-2-yl)pyrrolo[1,2-b]pyridazine-3-carbonitrile], the concentration for a half-maximal effect (EC50) in the assay on TNFα (setting [1]) was determined as 18.7 nM. The compound further yielded an IC50 against IRAK4 enzyme of 0.64 nM.

For the compound `CC(C)Nc1cc(-c2ccc3cc(C#N)cnn23)ncc1-c1nnc(N2CCOCC2)s1` [Example 131, 7-(4-(isopropylamino)-5-(5-morpholino-1,3,4-thiadiazol-2-yl)pyridin-2-yl)pyrrolo[1,2-b]pyridazine-3-carbonitrile], the 50% effective concentration (EC50) in the assay with TNFα (setting [1]) was 14.3 nM. The same compound yielded a concentration for half-maximal inhibition (IC50) on IRAK4 enzyme of 0.53 nM.

For `CC(C)Nc1cc(-c2ccc3cc(C#N)cnn23)ncc1-c1nnc(C2CCN(CC(F)F)CC2)s1` [Example 133, 7-(5-(5-(1-(2,2-difluoroethyl)piperidin-4-yl)-1,3,4-thiadiazol-2-yl)-4-(isopropylamino)pyridin-2-yl)pyrrolo[1,2-b]pyridazine-3-carbonitrile], the concentration for a half-maximal effect (EC50) with TNFα (setting [1]) worked out at 531 nM. Moreover, the 50% inhibitory concentration (IC50) against IRAK4 enzyme stood at 1.47 nM.

Take `CC(=O)N[C@@H]1[C@@H]2CC[C@H]1N(c1nnc(-c3cnc(-c4ccc5cc(C#N)cnn45)cc3NC(C)C)s1)C2` [Example 137, N-((1R,4R,7R)-2-(5-(6-(3-cyanopyrrolo[1,2-b]pyridazin-7-yl)-4-(isopropylamino)pyridin-3-yl)-1,3,4-thiadiazol-2-yl)-2-azabicyclo[2.2.1]heptan-7-yl)acetamide]: the EC50 in the assay with TNFα (setting [1]) came to 6.5 nM. This compound also displayed a concentration for half-maximal inhibition (IC50) on IRAK4 enzyme of 0.85 nM.

In the case of `CC(=O)N[C@@H]1C[C@@H]2CC[C@H]1N2c1nnc(-c2cnc(-c3ccc4cc(C#N)cnn34)cc2NC(C)C)s1` [Example 141, N-((1R,2R,4S)-7-(5-(6-(3-cyanopyrrolo[1,2-b]pyridazin-7-yl)-4-(isopropylamino)pyridin-3-yl)-1,3,4-thiadiazol-2-yl)-7-azabicyclo[2.2.1]heptan-2-yl)acetamide], the EC50 with TNFα (Homo sapiens, Monocyte) turned out to be 18.6 nM. At IRAK4 enzyme, this compound registered a half-maximal inhibitory concentration (IC50) of 0.5 nM.

`CC1(Nc2cc(-c3ccc4cc(C#N)cnn34)ncc2-c2nnc(N3C[C@H]4CC[C@@H](C3)O4)s2)COC1` [Example 145, 7-(5-(5-((1R,5S)-8-oxa-3-azabicyclo[3.2.1]octan-3-yl)-1,3,4-thiadiazol-2-yl)-4-((3-methyloxetan-3-yl)amino)pyridin-2-yl)pyrrolo[1,2-b]pyridazine-3-carbonitrile]: the EC50 in the assay with TNFα (setting [1]) is 5.6 nM. This compound showed a 50% inhibitory concentration (IC50) against IRAK4 enzyme of 0.33 nM.

In the case of `CC(=O)N[C@@H]1CCN(c2nnc(-c3cnc(-c4ccc5cc(C#N)cnn45)cc3N[C@H](C)C#N)s2)CC1(F)F` [Example 151, N-((R)-1-(5-(4-(((R)-1-cyanoethyl)amino)-6-(3-cyanopyrrolo[1,2-b]pyridazin-7-yl)pyridin-3-yl)-1,3,4-thiadiazol-2-yl)-3,3-difluoropiperidin-4-yl)acetamide], the concentration giving a half-maximal response (EC50) with TNFα (setting [1]) was determined as 5 nM. For the same compound, the IC50 at IRAK4 enzyme worked out at 1.03 nM.

For the compound `CC(=O)N[C@H]1CCN(c2nnc(-c3cnc(-c4ccc5cc(C#N)cnn45)cc3N[C@H](C)C#N)s2)CC1(F)F` [Example 152, N-((S)-1-(5-(4-(((R)-1-cyanoethyl)amino)-6-(3-cyanopyrrolo[1,2-b]pyridazin-7-yl)pyridin-3-yl)-1,3,4-thiadiazol-2-yl)-3,3-difluoropiperidin-4-yl)acetamide], the concentration giving a half-maximal response (EC50) in the assay on TNFα (setting [1]) came to 10.7 nM. Besides, the half-inhibitory concentration (IC50) against IRAK4 enzyme turned out to be 0.58 nM.

`CC(C)Nc1cc(-c2ccc3cc(C#N)cnn23)ncc1-c1nnc(N2CC[C@H](O)C(F)(F)C2)s1` [Example 161, (S)-7-(5-(5-(3,3-difluoro-4-hydroxypiperidin-1-yl)-1,3,4-thiadiazol-2-yl)-4-(isopropylamino)pyridin-2-yl)pyrrolo[1,2-b]pyridazine-3-carbonitrile]: the EC50 in the assay with TNFα (setting [1]) was found to be 34.7 nM. Also, the IC50 at IRAK4 enzyme turned out to be 1.48 nM.

`CC(C)Nc1cc(-c2ccc3cc(C#N)cnn23)ncc1-c1nnc(N2CC[C@@H](O)C(F)(F)C2)s1` [Example 162, (R)-7-(5-(5-(3,3-difluoro-4-hydroxypiperidin-1-yl)-1,3,4-thiadiazol-2-yl)-4-(isopropylamino)pyridin-2-yl)pyrrolo[1,2-b]pyridazine-3-carbonitrile]: the 50% effective concentration (EC50) in the assay with TNFα (setting [1]) came out at 26.5 nM. Besides, half-maximal inhibition against IRAK4 enzyme (IC50) was put at 2.29 nM.

For `CC(C)Nc1cc(-c2ccc3cc(C#N)cnn23)ncc1-c1nnc(N2CC3(CNC(=O)C3)C2)s1` [Example 163, 7-(4-(isopropylamino)-5-(5-(7-oxo-2,6-diazaspiro[3.4]octan-2-yl)-1,3,4-thiadiazol-2-yl)pyridin-2-yl)pyrrolo[1,2-b]pyridazine-3-carbonitrile], the half-maximal effective concentration (EC50) in the assay on TNFα (setting [1]) amounted to 15 nM. On IRAK4 enzyme, the IC50 came to 0.54 nM.

Regarding `CC(C)Nc1cc(-c2ccc3cc(C#N)cnn23)ncc1-c1nnc(N2CCOC(F)(F)C2)s1` [Example 167, 7-(5-(5-(2,2-difluoromorpholino)-1,3,4-thiadiazol-2-yl)-4-(isopropylamino)pyridin-2-yl)pyrrolo[1,2-b]pyridazine-3-carbonitrile], the 50% effective concentration (EC50) with TNFα (setting [1]) was found to be 1000 nM. This compound gave a 50% inhibitory concentration (IC50) against IRAK4 enzyme of 1.81 nM.

In the case of `CC(=O)N[C@@H]1CCN(c2nnc(-c3cnc(-c4ccc5cc(C#N)cnn45)cc3NC(C)C)s2)CC1(F)F` [Example 168, (R)-N-(1-(5-(6-(3-cyanopyrrolo[1,2-b]pyridazin-7-yl)-4-(isopropylamino)pyridin-3-yl)-1,3,4-thiadiazol-2-yl)-3,3-difluoropiperidin-4-yl)acetamide], the EC50 with TNFα (setting [1]) was determined as 8.4 nM. The IC50 against IRAK4 enzyme turned out to be 0.65 nM.
